This note sets out measurements from article PMC12435405.

This data set is described as follows: Double CuAAC of unprotected bis-azido peptide with triethynylphosphine oxide (1.2 eq), CuBr 10 eq, THPTA 20 eq; two-component cyclisation to ethynyl-ditriazolyl-phosphine oxide (EDPO) cyclic peptide; forms two 1,4-triazoles. The following applies: the molecule shown is the open-chain precursor, NaOAc buffer (100 mM, pH 5)/MeCN 20%, ~2% DMSO, 1.0 mM, 25.0 °C, 0.083 h.

Each structure is given as a SMILES string.

`[N-]=[N+]=NCCCC[C@H](NC(=O)[C@H](Cc1ccc(O)cc1)NC(=O)[C@H](CC(=O)O)NC(=O)CNC(=O)[C@H](CCCNC(=N)N)NC(=O)[C@H](CCCCN)NC(=O)CN=[N+]=[N-])C(N)=O` [N3-Gly(azidoacetyl)-Lys-Arg-Gly-Asp-Tyr-Lys(N3)-NH2] came in with a ring closure, isolated yield (30-membered ring) of 41%.

For `[N-]=[N+]=NCCCC[C@H](NC(=O)CN)C(=O)N[C@@H](CCCNC(=N)N)C(=O)N[C@@H](CCCNC(=N)N)C(=O)N[C@@H](CCCNC(=N)N)C(=O)N[C@@H](CCCNC(=N)N)C(=O)N[C@@H](CCCNC(=N)N)C(=O)N[C@@H](CCCNC(=N)N)C(=O)N[C@@H](CCCNC(=N)N)C(=O)N[C@@H](CCCNC(=N)N)C(=O)N[C@@H](CCCNC(=N)N)C(=O)N[C@@H](CCCNC(=N)N)C(=O)N[C@@H](CCCCN=[N+]=[N-])C(=O)NCC(N)=O`, the ring closure, isolated yield (49-membered ring) amounted to 18%.

In turn, `[N-]=[N+]=NCCCC[C@H](NC(=O)CN)C(=O)N[C@@H](CCCNC(=N)N)C(=O)N[C@@H](CCCNC(=N)N)C(=O)N[C@@H](CCCNC(=N)N)C(=O)N[C@@H](CCCNC(=N)N)C(=O)N[C@@H](CCCNC(=N)N)C(=O)N[C@@H](CCCNC(=N)N)C(=O)N[C@@H](CCCNC(=N)N)C(=O)N[C@@H](CCCNC(=N)N)C(=O)N[C@@H](CCCCN=[N+]=[N-])C(=O)NCC(N)=O` had a ring closure, isolated yield (43-membered ring) of 27%.

In turn, `CC(C)C[C@H](NC(=O)CN=[N+]=[N-])C(=O)N[C@@H](Cc1ccc(O)cc1)C(=O)N[C@@H](CCCNC(=N)N)C(=O)N[C@@H](C)C(=O)N[C@@H](CCCCN=[N+]=[N-])C(N)=O` [N3-Gly(azidoacetyl)-Leu-Tyr-Arg-Ala-Lys(N3)-NH2] had a ring closure, isolated yield (27-membered ring) of 39%.

On to `[N-]=[N+]=NCCCC[C@H](NC(=O)[C@@H](CCCNC(=N)N)NC(=O)[C@H](CCCNC(=N)N)NC(=O)[C@@H](CCCCN)NC(=O)[C@H](CCCCN)NC(=O)[C@@H](CCCNC(=N)N)NC(=O)CNC(=O)[C@@H](CCCNC(=N)N)NC(=O)[C@H](CCCNC(=N)N)NC(=O)[C@@H](CCCNC(=N)N)NC(=O)[C@@H](N)CCCCN=[N+]=[N-])C(N)=O`, for which the ring closure, isolated yield (46-membered ring) worked out at 39%.

As for `CC(=O)N[C@@H](CCC(=O)O)C(=O)N[C@H](C(=O)N[C@@H](Cc1ccccc1)C(=O)N[C@@H](CCCCN=[N+]=[N-])C(=O)N[C@@H](CC(=O)O)C(=O)N[C@@H](CC(C)C)C(=O)N[C@@H](Cc1c[nH]c2ccccc12)C(=O)N[C@@H](CCCNC(=N)N)C(=O)N[C@@H](CC(C)C)C(=O)N[C@@H](CC(C)C)C(=O)N[C@@H](CCCCN=[N+]=[N-])C(=O)N[C@@H](CCC(=O)O)C(=O)N[C@@H](CC(N)=O)C(N)=O)[C@@H](C)O`, the ring closure, isolated yield (37-membered ring) came to 24%.
